{
  "source": "paper PMC9764201",
  "about": "“Half-calcified calmodulin promotes basal activity and inactivation of the L-type calcium channel CaV1.2” (The Journal of Biological Chemistry, 2022)",
  "key": {"CaV1.2 [1]": {"system": "CaV1.2", "test": "Cell-attached single-channel recording of CaV1.2 variants in HEK 293T/17 cells", "assay_type": "cell-based, rat", "settings": "110 mM Ba2+, 0 mV from -80 mV; n=8; mean±SEM (Table S2)", "experimental": "(§1) HEK 293T/17 cells (ATCC) were maintained as previously described ([15], [53]). For electrophysiology, Lipofectamine 2000 (Invitrogene) or JetPrime (Polyplus Transfection) was used to transiently transfect cells with indicated plasmid DNAs in 35 mm dishes. For biochemistry experiments, transient transfection of HEK 293T/17 cells in […] dishes was achieved using either JetPrime or, as previously described ([15], [53]), the calcium phosphate method. Cells were cotransfected with plasmids encoding the pore-forming α11.2 subunit N-terminally tagged with eCFP ([15], [53]) or mCherry ([54]) plus pGWIH-based plasmids encoding the auxiliary subunits rat β2A ([55]) and rabbit α2δ-1 ([56]) as previously described ([15], [53]). For all transfections, equimolar ratio of 1:1:1 was used for CaV1.2 channel subunits and later further optimized (JetPrime) for CaM (at ratio of 1:1:1:0.5 for α11.2:β2A:α2δ−1:CaM). Rat brain α11.2 (GenBank ID: M67515.1) N-terminally fused to eCFP was utilized as previously described ([15]). The point mutations in plasmids encoding single-residue I1654A, Y1657D (this report), and K1662E exchanges in α11.2 were generated via QuikChange II as previously described ([15], [53]) using N-terminally eCFP ([15], [53]) or mCherry tagged ([54]) rat brain α11.2 plasmid template DNAs. We studied CDI using mCherry-tagged α11.2 subunit coexpressed with the other, untagged CaV1.2 subunits and WT CaM or the calmodulin 34 mutant CaM34 (kindly provided by JP Adelman, ([8])). For some biochemical experiments shown in Fig. S2, YFP-tagged CaM was used ([32]).\n(§2) Single-channel recordings were performed as described previously ([15], [31]). In brief, low noise raw data were recorded with an Axopatch 200B amplifier and data were sampled at 10 kHz with a low-pass filter at 2 kHz (3 dB, four pole Bessel) and digitalized with a Digidata 1440 digitizer. Recording electrodes were pulled from borosilicate capillary glass ([…]) with a Flaming/Brown micropipette puller (Model P-97, Sutter Instruments), heat polished, and coated with Sylgard (Sylgard 289) until close to the electrode tip. Electrode resistance in solution was usually 5 to 10 MΩ. To keep the membrane potential close to 0 mV the extracellular bath solution contained (in mM) 120 K-Glutamate, 25 KCl, 2 MgCl2, 1 CaCl2, 10 EGTA, 10 Hepes, and 2 Na2-ATP pH 7.4 (KOH). The intracellular pipette solution contained (in mM) 110 BaCl2 and 10 Hepes, adjusted to pH 7.4 (TEA-OH). Cells were depolarized for 2 s from a holding potential of -80 mV to 0 mV every 7 s. Event lists were created from raw Ba^2+ currents after leak and capacity transients were digitally subtracted by pClamp 10. Unitary current events were then analyzed based on the half-height criterium ([57]) using the single-channel software provided by pClamp 10.\n(§3) For statistical analysis, single-channel parameters were corrected by the channel number (k), respectively, the maximum of simultaneously open channels (PMAX). The number of channels in the patch was estimated based on the observed simultaneous openings and is a precise parameter for k < 4, as included in this article and originally described by R. Horn ([58]). On average, 100 to 200 Ba^2+ current traces were recorded for each cell for each experimental condition for an appropriate statistical analysis.\nTable S2. Biophysical properties of WT and Y1657D mutant CaV1.2 as determined by single channel recordings with 110 mM Ba2+. HEK 293T/17 cells were transiently transfected with eCFP-tagged rat CaV1.2 (WT versus Y1657D) plus α2δ1 and β2a. Single-channel parameter were corrected for the number of channels (k) in the patch. Availability denotes the number of active over […] traces. Popen (Po) is the open probability within active traces. Ipeak is the current flown through all channels in a patch at the time point of the current maximum and was corrected by the number of channels. Mean ensemble average (MEA) is the mean average current of all traces after being superimposed. […]"}, "CaV1.2 [2]": {"system": "CaV1.2", "test": "Cell-attached single-channel recording of CaV1.2 with ectopic CaM in HEK 293T/17 cells", "assay_type": "cell-based, rat", "settings": "110 mM Ba2+, 0 mV from -80 mV; mean±SEM (Table S3)", "experimental": "as §1, §2, §3\nTable S3. Effects of ectopically expressed CaM and CaM34 on CaV1.2 as determined by single channel recordings with 110 mM Ba2+. HEK 293T/17 cells were transiently transfected with eCFP-tagged rat CaV1.2, α2δ1 and β2a alone or together with WT CaM (+CaM) or CaM34 (+CaM34). Parameters were corrected for the number of channels (k) in the patch. Recordings were obtained at a test potential of 0 mV from a holding potential of -80 mV. For all parameters, statistical significance p was determined for CaV1.2 without ectopic CaM expression and for CaV1.2 plus CaM34 agains CaV1.2 plus wt CaM (one-way ANOVA followed by Bonferroni test). […]"}},
  "data": [
    {"substance": "CaV1.2: WT rat brain α11.2 with α2δ1 and β2A expressed in HEK 293T/17 cells", "values": [
      {"measurement": "Availability", "setting": "CaV1.2 [1]", "result": "65±12", "unit": "%"},
      {"measurement": "IPeak", "setting": "CaV1.2 [1]", "result": "21.2±5.3", "unit": "fA"},
      {"measurement": "MEA (mean ensemble average)", "setting": "CaV1.2 [1]", "result": "8.5±2.4", "unit": "fA"},
      {"measurement": "MOT (mean open time)", "setting": "CaV1.2 [1]", "result": "1.4 ± 0.2", "unit": "ms"},
      {"measurement": "Po", "setting": "CaV1.2 [1]", "result": "2.0±0.5", "unit": "%"},
      {"measurement": "unitary i", "setting": "CaV1.2 [1]", "result": "0.7±0.04", "unit": "pA"},
      {"measurement": "Availability", "setting": "CaV1.2 [2]", "result": "77±7", "unit": "%"},
      {"measurement": "IPeak", "setting": "CaV1.2 [2]", "result": "19.7±4.0", "unit": "fA"},
      {"measurement": "MEA (mean ensemble average)", "setting": "CaV1.2 [2]", "result": "9.6±2.4", "unit": "fA"},
      {"measurement": "MOT (mean open time)", "setting": "CaV1.2 [2]", "result": "1.2 ± 0.2", "unit": "ms"},
      {"measurement": "Po", "setting": "CaV1.2 [2]", "result": "2.3±0.6", "unit": "%"},
      {"measurement": "unitary i", "setting": "CaV1.2 [2]", "result": "0.81±0.03", "unit": "pA"}
    ]}
  ]
}
